Reference: ChEMBL document CHEMBL5543175, “Discovery of Selective Proteolysis-Targeting Chimera Degraders Targeting PTP1B as Long-Term Hypoglycemic Agents” (J Med Chem, 2024)
Calls of active or inactive are those of the source. The rule behind the calls is not given here.

What was measured:
[1] = target: T1, Protein cereblon/Tyrosine-protein phosphatase non-receptor type 1 (Homo sapiens, UniProt P18031+Q96SW2); experiment: PROTAC activity at PTP1B/CRBN in insulin treated human HepG2 cells assessed as protein degradation at 625 nM incubated for 72 hrs by Western blot analysis relative to control; type: cell-based
Target sequence in this assay (P18031 whole entry, looked up): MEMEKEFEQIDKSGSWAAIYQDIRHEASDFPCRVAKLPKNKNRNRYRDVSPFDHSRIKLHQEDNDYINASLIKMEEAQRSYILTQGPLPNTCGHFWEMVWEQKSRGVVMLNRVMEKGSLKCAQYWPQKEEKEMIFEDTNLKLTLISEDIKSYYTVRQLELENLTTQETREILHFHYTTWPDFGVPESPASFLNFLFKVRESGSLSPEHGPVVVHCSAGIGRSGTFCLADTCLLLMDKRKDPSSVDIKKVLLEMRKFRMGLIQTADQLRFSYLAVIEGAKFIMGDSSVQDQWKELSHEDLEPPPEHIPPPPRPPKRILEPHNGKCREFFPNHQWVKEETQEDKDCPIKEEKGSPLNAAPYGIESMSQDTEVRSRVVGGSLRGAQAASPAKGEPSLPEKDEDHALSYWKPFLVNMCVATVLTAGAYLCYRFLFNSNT
Target sequence in this assay (Q96SW2 whole entry, looked up): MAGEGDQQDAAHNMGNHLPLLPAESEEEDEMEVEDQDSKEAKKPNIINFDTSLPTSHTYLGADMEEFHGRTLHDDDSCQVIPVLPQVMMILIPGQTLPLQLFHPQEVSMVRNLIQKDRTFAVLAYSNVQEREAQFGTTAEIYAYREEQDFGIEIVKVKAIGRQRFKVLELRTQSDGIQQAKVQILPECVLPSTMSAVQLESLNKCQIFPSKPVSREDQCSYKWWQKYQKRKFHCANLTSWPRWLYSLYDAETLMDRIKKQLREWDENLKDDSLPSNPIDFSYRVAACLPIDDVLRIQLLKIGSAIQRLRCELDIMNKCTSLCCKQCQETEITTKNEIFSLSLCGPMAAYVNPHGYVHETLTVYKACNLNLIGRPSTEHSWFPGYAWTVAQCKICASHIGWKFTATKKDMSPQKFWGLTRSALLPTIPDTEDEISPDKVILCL

[2] = target: T1, Protein cereblon/Tyrosine-protein phosphatase non-receptor type 1; experiment: PROTAC activity at PTP1B/CRBN in insulin treated human HepG2 cells assessed as protein degradation at 1 nM incubated for 72 hrs by Western blot analysis relative to control; type: cell-based
Target sequence in this assay (P18031 whole entry, looked up): as the sequence (P18031 whole entry, looked up) above
Target sequence in this assay (Q96SW2 whole entry, looked up): as the sequence (Q96SW2 whole entry, looked up) above

[3] = target: T1, Protein cereblon/Tyrosine-protein phosphatase non-receptor type 1; experiment: PROTAC activity at PTP1B/CRBN in insulin treated human HepG2 cells assessed as protein degradation at 5000 nM incubated for 48 hrs by Western blot analysis relative to control; type: cell-based
Target sequence in this assay (P18031 whole entry, looked up): as the sequence (P18031 whole entry, looked up) above
Target sequence in this assay (Q96SW2 whole entry, looked up): as the sequence (Q96SW2 whole entry, looked up) above

[4] = target: T1, Protein cereblon/Tyrosine-protein phosphatase non-receptor type 1; experiment: PROTAC activity at PTP1B/CRBN in insulin treated human HepG2 cells assessed as protein degradation at 50 nM incubated for 48 hrs by Western blot analysis relative to control; type: cell-based
Target sequence in this assay (P18031 whole entry, looked up): as the sequence (P18031 whole entry, looked up) above
Target sequence in this assay (Q96SW2 whole entry, looked up): as the sequence (Q96SW2 whole entry, looked up) above

[5] = target: T1, Protein cereblon/Tyrosine-protein phosphatase non-receptor type 1; experiment: PROTAC activity at PTP1B/CRBN in insulin treated human HepG2 cells assessed as protein degradation at 5 nM incubated for 72 hrs by Western blot analysis relative to control; type: cell-based
Target sequence in this assay (P18031 whole entry, looked up): as the sequence (P18031 whole entry, looked up) above
Target sequence in this assay (Q96SW2 whole entry, looked up): as the sequence (Q96SW2 whole entry, looked up) above

[6] = target: T1, Protein cereblon/Tyrosine-protein phosphatase non-receptor type 1; experiment: PROTAC activity at PTP1B/CRBN in insulin treated human HepG2 cells assessed as protein degradation at 1250 nM incubated for 72 hrs by Western blot analysis relative to control; type: cell-based
Target sequence in this assay (P18031 whole entry, looked up): as the sequence (P18031 whole entry, looked up) above
Target sequence in this assay (Q96SW2 whole entry, looked up): as the sequence (Q96SW2 whole entry, looked up) above

[7] = target: T1, Protein cereblon/Tyrosine-protein phosphatase non-receptor type 1; experiment: PROTAC activity at PTP1B/CRBN in insulin treated human HepG2 cells assessed as protein degradation at 500 nM incubated for 48 hrs by Western blot analysis relative to control; type: cell-based
[8] = target: T1, Protein cereblon/Tyrosine-protein phosphatase non-receptor type 1; experiment: PROTAC activity at PTP1B/CRBN in insulin treated human HepG2 cells assessed as protein degradation at 1250 nM incubated for 48 hrs by Western blot analysis relative to control; type: cell-based
[9] = target: T1, Protein cereblon/Tyrosine-protein phosphatase non-receptor type 1; experiment: PROTAC activity at PTP1B/CRBN in insulin treated human HepG2 cells assessed as protein degradation at 625 nM incubated for 48 hrs by Western blot analysis relative to control; type: cell-based
[10] = target: T1, Protein cereblon/Tyrosine-protein phosphatase non-receptor type 1; experiment: PROTAC activity at PTP1B/CRBN in insulin treated human HepG2 cells assessed as protein degradation at 1 nM incubated for 48 hrs by Western blot analysis relative to control; type: cell-based
[11] = target: T1, Protein cereblon/Tyrosine-protein phosphatase non-receptor type 1; experiment: PROTAC activity at PTP1B/CRBN in insulin treated human HepG2 cells assessed as protein degradation at 25 nM incubated for 72 hrs by Western blot analysis relative to control; type: cell-based
[12] = target: T1, Protein cereblon/Tyrosine-protein phosphatase non-receptor type 1; experiment: PROTAC activity at PTP1B/CRBN in insulin treated human HepG2 cells assessed as protein degradation at 25 nM incubated for 48 hrs by Western blot analysis relative to control; type: cell-based
[13] = target: T1, Protein cereblon/Tyrosine-protein phosphatase non-receptor type 1; experiment: PROTAC activity at PTP1B/CRBN in insulin treated human HepG2 cells assessed as protein degradation at 125 nM incubated for 72 hrs by Western blot analysis relative to control; type: cell-based
[14] = target: T1, Protein cereblon/Tyrosine-protein phosphatase non-receptor type 1; experiment: PROTAC activity at PTP1B/CRBN in insulin treated human HepG2 cells assessed as protein degradation at 125 nM incubated for 48 hrs by Western blot analysis relative to control; type: cell-based
[15] = target: T1, Protein cereblon/Tyrosine-protein phosphatase non-receptor type 1; experiment: PROTAC activity at PTP1B/CRBN in insulin treated human HepG2 cells assessed as protein degradation at 5 nM incubated for 48 hrs by Western blot analysis relative to control; type: cell-based
[16] = target: T1, Protein cereblon/Tyrosine-protein phosphatase non-receptor type 1; experiment: PROTAC activity at PTP1B/CRBN in insulin treated human HepG2 cells assessed as protein degradation incubated for 72 hrs by Western blot analysis; type: cell-based
[17] = target: T1, Protein cereblon/Tyrosine-protein phosphatase non-receptor type 1; experiment: PROTAC activity at PTP1B/CRBN in insulin treated human HepG2 cells assessed as protein degradation incubated for 48 hrs by Western blot analysis; type: cell-based
[18] = tested on: Mus musculus; experiment: Anti-diabetic activity in KM mouse assessed as reduction in area under the curve of blood glucose measured for 0 to 120 mins at 40 mg/kg single dose by oral glucose tolerance test (oGTT); type: functional; parameters: scale not given: the % may be the effect or the level left; conditions: time 0-120 min
[19] = target: Protein cereblon/Receptor-type tyrosine-protein phosphatase C (Homo sapiens) (UniProt P08575+Q96SW2); experiment: PROTAC activity at CD45/CRBN in insulin treated human HepG2 cells assessed as protein degradation at 250 to 500 nM incubated for 24 hrs by Western blot analysis; type: cell-based; conditions: dose 250-500 nM
Protein cereblon/Receptor-type tyrosine-protein phosphatase C (Homo sapiens), sequence (P08575 whole entry, looked up): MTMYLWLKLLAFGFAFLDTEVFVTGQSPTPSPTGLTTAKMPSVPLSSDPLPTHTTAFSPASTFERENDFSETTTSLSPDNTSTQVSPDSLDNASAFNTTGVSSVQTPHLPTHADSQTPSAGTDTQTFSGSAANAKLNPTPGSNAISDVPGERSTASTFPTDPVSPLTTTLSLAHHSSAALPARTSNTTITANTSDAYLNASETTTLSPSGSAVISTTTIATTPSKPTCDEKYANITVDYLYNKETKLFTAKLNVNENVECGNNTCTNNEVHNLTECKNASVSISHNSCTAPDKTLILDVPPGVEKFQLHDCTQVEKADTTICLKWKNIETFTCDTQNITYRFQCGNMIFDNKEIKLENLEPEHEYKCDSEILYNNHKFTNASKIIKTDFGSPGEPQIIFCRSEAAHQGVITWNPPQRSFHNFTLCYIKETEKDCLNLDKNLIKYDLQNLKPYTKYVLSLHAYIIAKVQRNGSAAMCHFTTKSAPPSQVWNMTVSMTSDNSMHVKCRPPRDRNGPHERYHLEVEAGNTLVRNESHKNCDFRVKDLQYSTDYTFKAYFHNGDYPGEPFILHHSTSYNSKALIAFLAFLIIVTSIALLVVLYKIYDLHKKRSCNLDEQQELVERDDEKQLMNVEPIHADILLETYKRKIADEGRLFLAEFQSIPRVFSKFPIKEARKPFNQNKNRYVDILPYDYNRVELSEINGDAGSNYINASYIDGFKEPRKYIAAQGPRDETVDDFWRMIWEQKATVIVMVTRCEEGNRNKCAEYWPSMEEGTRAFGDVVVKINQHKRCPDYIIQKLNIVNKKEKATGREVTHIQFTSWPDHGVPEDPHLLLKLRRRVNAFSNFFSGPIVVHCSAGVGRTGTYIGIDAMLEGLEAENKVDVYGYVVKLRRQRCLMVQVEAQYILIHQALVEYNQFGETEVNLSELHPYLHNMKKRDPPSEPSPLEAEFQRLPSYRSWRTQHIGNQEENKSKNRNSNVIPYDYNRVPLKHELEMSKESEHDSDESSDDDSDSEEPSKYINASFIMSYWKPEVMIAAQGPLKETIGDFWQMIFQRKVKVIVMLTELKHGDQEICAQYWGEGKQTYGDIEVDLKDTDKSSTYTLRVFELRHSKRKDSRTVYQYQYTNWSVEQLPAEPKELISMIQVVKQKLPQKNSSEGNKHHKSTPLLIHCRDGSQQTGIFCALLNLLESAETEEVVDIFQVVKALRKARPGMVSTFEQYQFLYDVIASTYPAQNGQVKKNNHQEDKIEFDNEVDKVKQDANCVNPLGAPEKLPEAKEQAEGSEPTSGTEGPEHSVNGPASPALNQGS
Protein cereblon/Receptor-type tyrosine-protein phosphatase C (Homo sapiens), sequence (Q96SW2 whole entry, looked up): as the sequence (Q96SW2 whole entry, looked up) above

[20] = target: T1, Protein cereblon/Tyrosine-protein phosphatase non-receptor type 1; experiment: PROTAC activity at PTP1B/CRBN in insulin treated human HepG2 cells assessed as protein degradation at 100 nM incubated for 24 hrs in presence of pomalidomide by Western blot analysis; type: cell-based
[21] = target: Protein cereblon/Tyrosine-protein phosphatase non-receptor type 22 (Homo sapiens) (UniProt Q9Y2R2+Q96SW2); experiment: PROTAC activity at LYP/CRBN in insulin treated human HepG2 cells assessed as protein degradation at 250 to 500 nM incubated for 24 hrs by Western blot analysis; type: cell-based; conditions: dose 250-500 nM
Protein cereblon/Tyrosine-protein phosphatase non-receptor type 22 (Homo sapiens), sequence (Q96SW2 whole entry, looked up): as above
Protein cereblon/Tyrosine-protein phosphatase non-receptor type 22 (Homo sapiens), sequence (Q9Y2R2 whole entry, looked up): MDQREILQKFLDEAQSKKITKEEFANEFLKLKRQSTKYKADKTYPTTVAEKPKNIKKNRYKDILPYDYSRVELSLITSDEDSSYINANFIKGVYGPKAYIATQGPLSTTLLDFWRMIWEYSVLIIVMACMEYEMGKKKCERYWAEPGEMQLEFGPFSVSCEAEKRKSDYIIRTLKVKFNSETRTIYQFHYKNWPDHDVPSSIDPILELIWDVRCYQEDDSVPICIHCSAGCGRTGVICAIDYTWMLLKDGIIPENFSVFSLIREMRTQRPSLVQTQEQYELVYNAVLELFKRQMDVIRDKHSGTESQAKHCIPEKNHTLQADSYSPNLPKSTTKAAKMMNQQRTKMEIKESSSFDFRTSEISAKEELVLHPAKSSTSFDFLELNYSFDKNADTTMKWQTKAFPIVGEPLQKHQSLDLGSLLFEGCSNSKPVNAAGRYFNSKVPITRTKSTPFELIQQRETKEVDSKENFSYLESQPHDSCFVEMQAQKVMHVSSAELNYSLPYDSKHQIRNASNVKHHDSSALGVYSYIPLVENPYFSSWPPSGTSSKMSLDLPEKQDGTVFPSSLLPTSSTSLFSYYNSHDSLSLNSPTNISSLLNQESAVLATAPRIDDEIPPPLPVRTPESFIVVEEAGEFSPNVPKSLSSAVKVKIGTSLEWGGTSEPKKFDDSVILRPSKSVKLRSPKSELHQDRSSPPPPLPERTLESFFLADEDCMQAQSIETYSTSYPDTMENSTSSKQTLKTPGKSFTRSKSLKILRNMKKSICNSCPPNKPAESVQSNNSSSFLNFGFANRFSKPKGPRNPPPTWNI

[22] = target: Protein cereblon/Tyrosine-protein phosphatase non-receptor type 6 (Homo sapiens) (UniProt P29350+Q96SW2); experiment: PROTAC activity at SHP1/CRBN in insulin treated human HepG2 cells assessed as protein degradation at 250 to 500 nM incubated for 24 hrs by Western blot analysis; type: cell-based; conditions: dose 250-500 nM
[23] = target: T1, Protein cereblon/Tyrosine-protein phosphatase non-receptor type 1; experiment: PROTAC activity at PTP1B/CRBN in insulin treated human HepG2 cells assessed as protein degradation half life at 500 nM by Western blot analysis; type: cell-based
[24] = tested on: HepG2; experiment: Hypoglycemic activity in human HepG2 cells assessed as upregulation of Akt phosphorylation at 250 to 500 nM incubated for 24 hrs by Western blot analysis; type: functional, cell-based; conditions: dose 250-500 nM
[25] = tested on: Mus musculus; experiment: Anti-diabetic activity in KM mouse assessed as reduction in area under the curve of blood glucose measured for 0 to 120 mins at 10 mg/kg single dose by oral glucose tolerance test (oGTT); type: functional; parameters: scale not given: the % may be the effect or the level left; conditions: time 0-120 min
[26] = tested on: Mus musculus; experiment: Anti-diabetic activity in KM mouse assessed as reduction in area under the curve of blood glucose measured for 0 to 120 mins at 20 mg/kg single dose by oral glucose tolerance test (oGTT); type: functional; parameters: scale not given: the % may be the effect or the level left; conditions: time 0-120 min
[27] = target: T1, Protein cereblon/Tyrosine-protein phosphatase non-receptor type 1; experiment: PROTAC activity at PTP1B/CRBN in insulin treated human HepG2 cells assessed as protein degradation at 100 nM incubated for 24 hrs in presence of MG-132 by Western blot analysis; type: cell-based
[28] = tested on: HepG2; experiment: Hypoglycemic activity in human HepG2 cells assessed as upregulation of IRS-1 expression at 250 to 500 nM incubated for 24 hrs by Western blot analysis; type: functional, cell-based; conditions: dose 250-500 nM
[29] = target: Protein cereblon/Tyrosine-protein phosphatase non-receptor type 11 (Homo sapiens) (UniProt Q06124+Q96SW2); experiment: PROTAC activity at SHP2/CRBN in insulin treated human HepG2 cells assessed as protein degradation at 250 to 500 nM incubated for 24 hrs by Western blot analysis; type: cell-based; conditions: dose 250-500 nM
[30] = tested on: HepG2; experiment: Hypoglycemic activity in human HepG2 cells assessed as upregulation of PI3K expression at 250 to 500 nM incubated for 24 hrs by Western blot analysis; type: functional, cell-based; conditions: dose 250-500 nM
[31] = target: T1, Protein cereblon/Tyrosine-protein phosphatase non-receptor type 1; experiment: PROTAC activity at PTP1B/CRBN in insulin treated human HepG2 cells assessed as protein degradation at 100 nM incubated for 24 hrs in presence of […] by Western blot analysis; type: cell-based
[32] = target: T1, Protein cereblon/Tyrosine-protein phosphatase non-receptor type 1; experiment: PROTAC activity at PTP1B/CRBN in insulin treated human HepG2 cells assessed as protein degradation at 250 to 500 nM incubated for 24 hrs by Western blot analysis; type: cell-based; conditions: dose 250-500 nM
[33] = tested on: Mus musculus; experiment: Anti-diabetic activity in KM mouse assessed as reduction in blood glucose measured for 0 to 120 mins at 40 mg/kg single dose by oral glucose tolerance test (oGTT) relative to control; type: functional; conditions: time 0-120 min

Activity [1] [%] | Activity [2] [%] | Activity [3] [%] | Activity [4] [%] | Activity [5] [%] | Activity [6] [%] | Activity [7] [%] | Activity [8] [%] | Activity [9] [%] | Activity [10] [%] | Activity [11] [%] | Activity [12] [%] | Activity [13] [%] | Activity [14] [%] | Activity [15] [%] | Activity [16] | DC50 [16] [nM] | Activity [17] | DC50 [17] [nM] | Compound | inhibition in vivo at 40 mg/kg [33] [%] | other results
25 | < 5 | 31 | 61 | 23 | 24 | 53 | 78 | 51 | 24 | 58 | < 5 | 41 | 36 | 38 | Dose-Dependent Effect | 3640 | Dose-Dependent Effect | 540 | CC1(C)CC[C@]2(C(=O)NCCCOCCOCCOCCCNc3cccc4c3C(=O)N(C3CCC(=O)NC3=O)C4=O)CC[C@]3(C)C(=CC[C@@H]4[C@@]5(C)CC[C@H](O)C(C)(C)[C@@H]5CC[C@]43C)[C@@H]2C1 (some centres not stated) |  | 
43 | < 5 | 20 | 20 | 40 | 48 | 27 | 71 | 43 | 8 | 58 | 51 | 58 | 46 | 51 | Dose-Dependent Effect | 50 | Dose-Dependent Effect | 200 | CC1(C)CC[C@]2(C(=O)NCCCCCCOCCOCCOCCOCCCCCC(=O)Nc3cccc4c3C(=O)N(C3CCC(=O)NC3=O)C4=O)CC[C@]3(C)C(=CC[C@@H]4[C@@]5(C)CC[C@H](O)C(C)(C)[C@@H]5CC[C@]43C)[C@@H]2C1 (some centres not stated) | 29 | Activity [18]: 21.8%; Activity [19]: inactive; Activity [20]: Active; Activity [21]: inactive; Activity [22]: inactive; T1/2 [23]: 4 h; Activity [24]: Active; Activity [25]: 8.6%; Activity [26]: 14.8%; Activity [27]: inactive; Activity [28]: Active; Activity [29]: inactive; Activity [30]: Active; Activity [31]: inactive; Activity [32]: 100%
28 | 30 | 19 | 41 | 36 | 61 | 33 | 35 | 68 | 37 | 48 | 23 | 32 | 61 | < 5 | Dose-Dependent Effect | 310 | Dose-Dependent Effect | 200 | C[C@H]1[C@H](C)CC[C@]2(C(=O)NCCCCCCOCCOCCOCCOCC(=O)Nc3cccc4c3C(=O)N(C3CCC(=O)NC3=O)C4=O)CC[C@]3(C)C(=CC[C@@H]4[C@@]5(C)CC[C@H](O)C(C)(C)[C@@H]5CC[C@]43C)[C@H]12 (some centres not stated) |  | 
 |  | 36 | 51 |  |  | 29 |  |  |  |  |  |  |  | 37 |  |  |  |  | C[C@H]1[C@H](C)CC[C@]2(C(=O)NCCCOCCOCCOCCCNc3cccc4c3C(=O)N(C3CCC(=O)NC3=O)C4=O)CC[C@]3(C)C(=CC[C@@H]4[C@@]5(C)CC[C@H](O)C(C)(C)[C@@H]5CC[C@]43C)[C@H]12 (some centres not stated) | 15.3 | 
49 | 33 | < 5 | 46 | 57 | 56 | 53 | 77 | 21 | 8 | 50 | 33 | 55 | 17 | 83 | Dose-Dependent Effect | 40 | Dose-Dependent Effect | 250 | C[C@H]1[C@H](C)CC[C@]2(C(=O)NCCCCCCOCCOCCOCC(=O)Nc3cccc4c3C(=O)N(C3CCC(=O)NC3=O)C4=O)CC[C@]3(C)C(=CC[C@@H]4[C@@]5(C)CC[C@H](O)C(C)(C)[C@@H]5CC[C@]43C)[C@H]12 (some centres not stated) | 18.3 | 
47 | 5 | 58 | 75 | 54 | 53 | 55 | 62 | 45 | 33 | 66 | < 5 | 43 | 8 | 17 | Dose-Dependent Effect | 200 | Dose-Dependent Effect | 770 | CC1(C)CC[C@]2(C(=O)NCCCOCCCCOCCCNc3cccc4c3C(=O)N(C3CCC(=O)NC3=O)C4=O)CC[C@]3(C)C(=CC[C@@H]4[C@@]5(C)CC[C@H](O)C(C)(C)[C@@H]5CC[C@]43C)[C@@H]2C1 (some centres not stated) |  | 
